Data set [1] in a line: Animal death during the hyperoxia experiment. In kind it is in vivo, mouse. The following applies: neonatal mice, i.p. every day P5 to P8, entire experiment. The procedure: Pregnant C57/BL6 wild-type mice (National Experimental Animal Center, Pocheon, Korea) were raised in individual cages by offering a free access to water and food to each mouse, the mice spontaneously gave birth to babies, and then the offsprings were grown in a chamber under hyperoxia (80% O2) conditions (P) or normal oxygen (21% O2) conditions by day 14. At this time, environmental humidity and temperature were maintained at 50% and 24° C., and to investigate the effect of activated FPR2, WKYMVm (SEQ ID NO: 1) or physiological saline (vehicle, 20 μl) was intraperitoneally administered to each mouse every day from P5 to P8. In this case, death of the animals was not observed throughout the entire experimental processes.

Data set [2] relates to bronchopulmonary dysplasia in neonatal mice. The conditions noted are these: Martin et al. 2014; cited from earlier work.

For the molecule `CSCC[C@H](NC(=O)[C@H](Cc1ccc(O)cc1)NC(=O)[C@H](CCCCN)NC(=O)[C@@H](N)Cc1c[nH]c2ccccc12)C(=O)N[C@H](C(=O)N[C@H](CCSC)C(=O)O)C(C)C` [WKYMVm, Trp-Lys-Tyr-Met-Val-D-Met], in data set [1], the “death of the animals” value is “not observed”. For the molecule `CC/C=C\C[C@H](O)/C=C/C=C\C=C\C=C\[C@@H](O)[C@@H](O)C/C=C\CCC(=O)O` [resolvin D1], the “alveolar damage caused by bronchopulmonary dysplasia” value in data set [2] was “improve alveolar damage”.

Take `CCCCC[C@H](O)/C=C/C=C\C=C\C=C\[C@@H](O)[C@@H](O)CCCC(=O)O` [lipoxin A4]: in data set [2], the “alveolar damage caused by bronchopulmonary dysplasia” value is on record as “improve alveolar damage”.

The values are drawn from patent publication US20190192613A1, “COMPOSITION FOR PREVENTING OR TREATING HYPEROXIA-INDUCED LUNG INJURY COMPRISING WKYMVM PEPTIDE AS AN ACTIVE INGREDIENT” (SAMSUNG LIFE PUBLIC WELFARE FOUNDATION, priority 2017, published 2019).
